Laboratory results: PMC7104723 (Cell Research, 2020)
Residues, ends and D or L forms follow the SMILES beside them. *: point of attachment. X1 = CC(C)CCC[C@@H](C)[C@H]1CC[C@H]2[C@@H]3CC=C4C[C@@H](OC(=O)C*)CC[C@]4(C)[C@H]3CC[C@]12C

System: SARS-CoV-2 PsV
Details: PsV, 72 h

For `CC[C@H](C)[C@H](NC(=O)[C@H](C)NC(=O)[C@H](CCC(=O)O)NC(=O)[C@H](CCC(=O)O)NC(=O)[C@H](CC(C)C)NC(=O)[C@H](CCCCN)NC(=O)[C@H](CCCCN)NC(=O)[C@H](CCSC)NC(=O)[C@H](CCC(=O)O)NC(=O)[C@H](Cc1ccc(O)cc1)NC(=O)[C@H](CCC(=O)O)NC(=O)[C@H](CC(C)C)NC(=O)[C@H](CC(=O)O)NC(=O)[C@H](CC(C)C)NC(=O)[C@H](Cc1ccccc1)NC(=O)[C@@H](NC(=O)[C@@H](NC(=O)[C@H](CC(N)=O)NC(=O)[C@@H](NC(=O)[C@H](CCC(N)=O)NC(=O)[C@H](CC(=O)O)NC(=O)[C@H](CC(C)C)NC(=O)[C@@H](N)CO)[C@@H](C)CC)C(C)C)[C@@H](C)O)C(=O)N[C@@H](CCCCN)C(=O)N[C@@H](CCCCN)C(=O)N[C@@H](CC(C)C)C(=O)N[C@@H](CCC(=O)O)C(=O)N[C@@H](CCC(=O)O)C(=O)N[C@@H](CO)C(=O)N[C@@H](Cc1ccc(O)cc1)C(=O)N[C@H](C(=O)N[C@@H](CC(=O)O)C(=O)N[C@@H](CC(C)C)C(=O)N[C@@H](CCCCN)C(=O)N[C@@H](CCC(=O)O)C(=O)N[C@@H](CC(C)C)C(=O)N[C@@H](CSCC(=O)O[C@H]1CC[C@@]2(C)C(=CC[C@H]3[C@@H]4CC[C@H]([C@H](C)CCCC(C)C)[C@@]4(C)CC[C@@H]32)C1)C(N)=O)[C@@H](C)CC` [EK1C1] (H-SLDQINVTFLDLEYEMKKLEEAIKKLEESYIDLKELC(X1)-NH2), which IC50 is on record?
The IC50 was 480 nM.

Which IC50 does the source give for `CC[C@H](C)[C@H](NC(=O)[C@H](C)NC(=O)[C@H](CCC(=O)O)NC(=O)[C@H](CCC(=O)O)NC(=O)[C@H](CC(C)C)NC(=O)[C@H](CCCCN)NC(=O)[C@H](CCCCN)NC(=O)[C@H](CCSC)NC(=O)[C@H](CCC(=O)O)NC(=O)[C@H](Cc1ccc(O)cc1)NC(=O)[C@H](CCC(=O)O)NC(=O)[C@H](CC(C)C)NC(=O)[C@H](CC(=O)O)NC(=O)[C@H](CC(C)C)NC(=O)[C@H](Cc1ccccc1)NC(=O)[C@@H](NC(=O)[C@@H](NC(=O)[C@H](CC(N)=O)NC(=O)[C@@H](NC(=O)[C@H](CCC(N)=O)NC(=O)[C@H](CC(=O)O)NC(=O)[C@H](CC(C)C)NC(=O)[C@@H](N)CO)[C@@H](C)CC)C(C)C)[C@@H](C)O)C(=O)N[C@@H](CCCCN)C(=O)N[C@@H](CCCCN)C(=O)N[C@@H](CC(C)C)C(=O)N[C@@H](CCC(=O)O)C(=O)N[C@@H](CCC(=O)O)C(=O)N[C@@H](CO)C(=O)N[C@@H](Cc1ccc(O)cc1)C(=O)N[C@H](C(=O)N[C@@H](CC(=O)O)C(=O)N[C@@H](CC(C)C)C(=O)N[C@@H](CCCCN)C(=O)N[C@@H](CCC(=O)O)C(=O)N[C@@H](CC(C)C)C(=O)NCC(=O)N[C@@H](CO)C(=O)NCC(=O)N[C@@H](CO)C(=O)NCC(=O)NCCOCCOCCOCCOCCOCCOCCOCCOCCOCCOCCOCCOCCC(=O)N[C@@H](CSCC(=O)O[C@H]1CC[C@@]2(C)C(=CC[C@H]3[C@@H]4CC[C@H]([C@H](C)CCCC(C)C)[C@@]4(C)CC[C@@H]32)C1)C(N)=O)[C@@H](C)CC` [EK1C6] here?
The IC50 was 77.4 nM.

Which IC50 does the source give for `CC[C@H](C)[C@H](NC(=O)[C@H](C)NC(=O)[C@H](CCC(=O)O)NC(=O)[C@H](CCC(=O)O)NC(=O)[C@H](CC(C)C)NC(=O)[C@H](CCCCN)NC(=O)[C@H](CCCCN)NC(=O)[C@H](CCSC)NC(=O)[C@H](CCC(=O)O)NC(=O)[C@H](Cc1ccc(O)cc1)NC(=O)[C@H](CCC(=O)O)NC(=O)[C@H](CC(C)C)NC(=O)[C@H](CC(=O)O)NC(=O)[C@H](CC(C)C)NC(=O)[C@H](Cc1ccccc1)NC(=O)[C@@H](NC(=O)[C@@H](NC(=O)[C@H](CC(N)=O)NC(=O)[C@@H](NC(=O)[C@H](CCC(N)=O)NC(=O)[C@H](CC(=O)O)NC(=O)[C@H](CC(C)C)NC(=O)[C@@H](N)CO)[C@@H](C)CC)C(C)C)[C@@H](C)O)C(=O)N[C@@H](CCCCN)C(=O)N[C@@H](CCCCN)C(=O)N[C@@H](CC(C)C)C(=O)N[C@@H](CCC(=O)O)C(=O)N[C@@H](CCC(=O)O)C(=O)N[C@@H](CO)C(=O)N[C@@H](Cc1ccc(O)cc1)C(=O)N[C@H](C(=O)N[C@@H](CC(=O)O)C(=O)N[C@@H](CC(C)C)C(=O)N[C@@H](CCCCN)C(=O)N[C@@H](CCC(=O)O)C(=O)N[C@@H](CC(C)C)C(=O)NCC(=O)N[C@@H](CO)C(=O)NCC(=O)N[C@@H](CO)C(=O)NCC(=O)NCCOCCOCCOCCOCCOCCOCCOCCOCCC(=O)N[C@@H](CSCC(=O)O[C@H]1CC[C@@]2(C)C(=CC[C@H]3[C@@H]4CC[C@H]([C@H](C)CCCC(C)C)[C@@]4(C)CC[C@@H]32)C1)C(N)=O)[C@@H](C)CC` [EK1C5] here?
Its IC50 is 31.3 nM.

For `CC[C@H](C)[C@H](NC(=O)[C@H](C)NC(=O)[C@H](CCC(=O)O)NC(=O)[C@H](CCC(=O)O)NC(=O)[C@H](CC(C)C)NC(=O)[C@H](CCCCN)NC(=O)[C@H](CCCCN)NC(=O)[C@H](CCSC)NC(=O)[C@H](CCC(=O)O)NC(=O)[C@H](Cc1ccc(O)cc1)NC(=O)[C@H](CCC(=O)O)NC(=O)[C@H](CC(C)C)NC(=O)[C@H](CC(=O)O)NC(=O)[C@H](CC(C)C)NC(=O)[C@H](Cc1ccccc1)NC(=O)[C@@H](NC(=O)[C@@H](NC(=O)[C@H](CC(N)=O)NC(=O)[C@@H](NC(=O)[C@H](CCC(N)=O)NC(=O)[C@H](CC(=O)O)NC(=O)[C@H](CC(C)C)NC(=O)[C@@H](N)CO)[C@@H](C)CC)C(C)C)[C@@H](C)O)C(=O)N[C@@H](CCCCN)C(=O)N[C@@H](CCCCN)C(=O)N[C@@H](CC(C)C)C(=O)N[C@@H](CCC(=O)O)C(=O)N[C@@H](CCC(=O)O)C(=O)N[C@@H](CO)C(=O)N[C@@H](Cc1ccc(O)cc1)C(=O)N[C@H](C(=O)N[C@@H](CC(=O)O)C(=O)N[C@@H](CC(C)C)C(=O)N[C@@H](CCCCN)C(=O)N[C@@H](CCC(=O)O)C(=O)N[C@@H](CC(C)C)C(=O)NCC(=O)N[C@@H](CO)C(=O)NCC(=O)N[C@@H](CO)C(=O)NCC(=O)NCCOCCOCCOCCOCCOCCOCCOCCOCCOCCOCCOCCOCCOCCOCCOCCOCCOCCOCCOCCOCCOCCOCCOCCOCCC(=O)N[C@@H](CSCC(=O)O[C@H]1CC[C@@]2(C)C(=CC[C@H]3[C@@H]4CC[C@H]([C@H](C)CCCC(C)C)[C@@]4(C)CC[C@@H]32)C1)C(N)=O)[C@@H](C)CC` [EK1C7], which IC50 is on record?
Its IC50 is 84.4 nM.

`CC[C@H](C)[C@H](NC(=O)[C@H](C)NC(=O)[C@H](CCC(=O)O)NC(=O)[C@H](CCC(=O)O)NC(=O)[C@H](CC(C)C)NC(=O)[C@H](CCCCN)NC(=O)[C@H](CCCCN)NC(=O)[C@H](CCSC)NC(=O)[C@H](CCC(=O)O)NC(=O)[C@H](Cc1ccc(O)cc1)NC(=O)[C@H](CCC(=O)O)NC(=O)[C@H](CC(C)C)NC(=O)[C@H](CC(=O)O)NC(=O)[C@H](CC(C)C)NC(=O)[C@H](Cc1ccccc1)NC(=O)[C@@H](NC(=O)[C@@H](NC(=O)[C@H](CC(N)=O)NC(=O)[C@@H](NC(=O)[C@H](CCC(N)=O)NC(=O)[C@H](CC(=O)O)NC(=O)[C@H](CC(C)C)NC(=O)[C@@H](N)CO)[C@@H](C)CC)C(C)C)[C@@H](C)O)C(=O)N[C@@H](CCCCN)C(=O)N[C@@H](CCCCN)C(=O)N[C@@H](CC(C)C)C(=O)N[C@@H](CCC(=O)O)C(=O)N[C@@H](CCC(=O)O)C(=O)N[C@@H](CO)C(=O)N[C@@H](Cc1ccc(O)cc1)C(=O)N[C@H](C(=O)N[C@@H](CC(=O)O)C(=O)N[C@@H](CC(C)C)C(=O)N[C@@H](CCCCN)C(=O)N[C@@H](CCC(=O)O)C(=O)N[C@@H](CC(C)C)C(=O)NCC(=O)N[C@@H](CO)C(=O)NCC(=O)N[C@@H](CSCC(=O)O[C@H]1CC[C@@]2(C)C(=CC[C@H]3[C@@H]4CC[C@H]([C@H](C)CCCC(C)C)[C@@]4(C)CC[C@@H]32)C1)C(N)=O)[C@@H](C)CC` [EK1C2] was tested. Which IC50 did it give?
Its IC50 is 419 nM.
